In article PMC12313019, “Fibrotic lung ECM upregulates SDC4/integrin-αvβ1 interaction and the interfering peptide SDC4_87-131 and its derivative peptides alleviate pulmonary fibrosis” (Regenerative Biomaterials, 2025):

How the values were obtained:
[1] = tested on: NIH3T3 cells; assay: RT-PCR of fibroblast activation markers, TGF-β1 and inflammatory factors in dECM-stimulated fibroblast; format: cell-based, mouse; conditions: for mRNA levels of α-SMA, FN, Col I and TGF-β1: peptide, induced by dECM-Nor and dECM-PF
Description: (§1) Decellularized lung ECM (dECM) was prepared as described in previous study. 2 × 10^5 cells/mL NIH3T3 cells (mouse […], purchased from the Stem Cell Bank of the Chinese Academy of Sciences, Shanghai, China) were seeded on the dECM slices attached to the bottom of the culture dish and cultured in DMEM medium containing 0.5% fetal bovine serum (Gibco, Waltham, MA, USA) at 37°C and 5% CO2.
(§2) Total RNA was extracted from cells or lung tissue (10 mg) using Trizol reagent, and mRNA was reverse transcribed into cDNA using HiScript® II QRT SuperMix for qPCR (Vazyme, #R223-01). Real-time fluorescence quantitative PCR (RT-PCR) was performed using Hieff® qPCR SYB Green Master Mix (YEASEN, #11201ES08) to obtain the Ct value. The 2^−ΔΔCt method was used to obtain the relative expression level of mRNA in each group. Primers (Table 1) were purchased from Sangon Biotech.

[2] = tested on: pan-integrins; assay: FN-coating cell adhesion assay (pan-integrins activation); format: cell-based, mouse; conditions: 100 nM, n=4–5
Description: 10 μg/mL Fibronectin (Merck, #10838039001) was dissolved in serum-free DMEM medium and dropped into a 96-well plate, 50 μL per well. The plate was incubated at 4 °C overnight. After blocking with 3% bovine serum albumin at room temperature for 30 min, 4×10^4 cells were inoculated into each well. After incubation for 30 min, the cells were washed, fixed, and stained with crystal violet (5 mg/mL) for 30 min. Then after the crystal violet was dissolved, it was detected using an ELISA reader at 595 nm.

[3] = tested on: integrin-αvβ1, FAK/AKT and PKCα/NF-κB pathways in NIH3T3 cells; assay: Western blot of signaling proteins in dECM-stimulated fibroblast; format: cell-based, mouse; conditions: dECM, n=3; for protein levels of α-SMA, integrin-αv, p-FAK and p-PKCα: designed peptides
Description: as §1
20 mg of lung tissue was extracted with RIPA lysis buffer (Roche International Ltd., Bermuda, USA), and the protein concentration was determined using a BCA protein detection kit (Roche). Protein samples were separated by 10% sodium dodecyl sulfate polyacrylamide gel (SDS-PAGE) electrophoresis and transferred to a PVDF membrane. After blocking, the PVDF membrane was incubated with primary antibodies for α-SMA, Integrin-αV, SDC4, Integrin-β1, p-Smad3, FAK, and p-FAK (CST, #19245, #4711, #12236S, #34971, #9520S, #3285S, and #3284S) at 4°C overnight, followed by incubation with secondary antibodies (CST, #7074P2), development with ECL reagent (SAB), and acquisition of images with a chemiluminescence imaging system (ChemiScope 5600).

[4] = target: integrin-αvβ1 (Homo sapiens, UniProt P05556+P06756); assay: SPR binding of peptides to integrin-αvβ1 (Biacore 8K+); conditions: Biacore 8K+, 25°C, integrin-αvβ1 on CM5 chip, PBS + 0.05% Tween-20, peptide 0.78-100 μM, Figure 7E, small labels, best readings
Description: The Biacore 8K+ system (GE Healthcare) was used at 25°C. The ligand integrin-αvβ1 (1 mg/mL) was routinely coupled to the sensor chip (Series S Sensor Chip CM5, Cytiva, #100530). The peptide samples SDC4_87-131 and CS-1, -2, -3, -4, -8, -9, -10 were dissolved in PBS, and then, the samples with different concentration gradients (0.78, 1.56, 3.125, 6.25, 12.5, 25, 50, 100 μM) were injected, respectively, under the driving of buffer PBST (PBS + 0.05% Tween-20). The signal intensity was quantified in relative units (RU), and binding affinity was determined using the dissociation constant (Kd). After the experiment, 10 mM glycine-HCl buffer solution (pH = 2) was selected to regenerate the chip surface.

[5] = tested on: BLM-induced PF, C57BL/6J mice; assay: BLM-induced PF in mice: RT-PCR of lung tissue; format: in vivo, mouse; conditions: 1 mg/kg tracheal instillation, q3d, n=4–6
Description: (§3) After the mice were anesthetized (1% sodium pentobarbital 50 mg/kg was injected intraperitoneally), 150 μL of bleomycin (BLM, 5 mg/mL, BIO-000001) was inhaled into the lungs of the mice by tracheal inhalation instillation. One day later, the mice were randomly divided into model and drug treatment groups, and the mice in the control group were only subjected to saline inhalation.
(§4) Based on the dosage of SDC2 fragment peptide and our experimental results (Supplementary Figure S10A and B), the dosage schedule of SDC4_87-131 was set as follows: starting on the third day after BLM inhalation, 1 mg/kg, administered via trachea infusion once every three days. And Anti-SDC4(93-121) 8 mg/kg was administered on the third and tenth days (reference dosage).
as §2

[6] = tested on: BLM-induced PF, C57BL/6J mice; assay: BLM-induced PF in mice: HE, Masson, hydroxyproline; format: in vivo, mouse; conditions: 1 mg/kg tracheal instillation
Description: C57BL/6J mice (male, 8-to 9-week old, 18–22 g, SPF grade) were purchased from Shanghai Slake Laboratory Animal Co., Ltd. [SCXK (Hu) 2022-0004, Shanghai, China]. […] The mice were housed in an SPF environment with 22–25°C, 46–65% humidity and 12 h/12 h light-dark alternation, with free access to water and food. This animal experiment was approved by the Experimental Animal Welfare Ethics Committee of Fujian Medical University (No. FJMU IACUC 2021-0465), and was carried out in accordance with the National Research Council's Guide for the Care and Use of Laboratory Animals.
as §3, §4
Lung tissue samples were paraffin-embedded, then sliced and dewaxed, and HE and Masson staining were performed respectively. After dehydration and sealing, images were collected and analyzed using a microscope.
100 mg of lung tissue was accurately weighed and processed according to the instructions of the hydroxyproline assay kit (Nanjing Jiancheng, Nanjing, China), and the absorbance was measured at a wavelength of 550 nm. The data were expressed as micrograms (µg) of hydroxyproline per mg of dry lung tissue.

[7] = tested on: fibroblast; assay: CCK-8 fibroblast viability/toxicity; format: cell-based, mouse; conditions: discussion
Description: as §1
(A) Schematic diagram of SDC487-131; (B) Effect of SDC487-131 and GRGDNP on fibroblast proliferation at 48 h was determined by CCK-8 method (n=3); (C) Effect of different concentration of SDC487-131 on fibroblast activation induced by d-PF for 48 h (n=5). Note: **p < 0.01 vs. PBS in d-Nor group; #p < 0.05 vs. PBS in d-PF group. d-Nor: dECM-Nor; d-PF: dECM-PF.
Figure S14. The viability of fibroblast after treated with peptides for 48 h was detected by CCK-8 assay.

Sequence of integrin-αvβ1 (P06756 31-992 limits assumed): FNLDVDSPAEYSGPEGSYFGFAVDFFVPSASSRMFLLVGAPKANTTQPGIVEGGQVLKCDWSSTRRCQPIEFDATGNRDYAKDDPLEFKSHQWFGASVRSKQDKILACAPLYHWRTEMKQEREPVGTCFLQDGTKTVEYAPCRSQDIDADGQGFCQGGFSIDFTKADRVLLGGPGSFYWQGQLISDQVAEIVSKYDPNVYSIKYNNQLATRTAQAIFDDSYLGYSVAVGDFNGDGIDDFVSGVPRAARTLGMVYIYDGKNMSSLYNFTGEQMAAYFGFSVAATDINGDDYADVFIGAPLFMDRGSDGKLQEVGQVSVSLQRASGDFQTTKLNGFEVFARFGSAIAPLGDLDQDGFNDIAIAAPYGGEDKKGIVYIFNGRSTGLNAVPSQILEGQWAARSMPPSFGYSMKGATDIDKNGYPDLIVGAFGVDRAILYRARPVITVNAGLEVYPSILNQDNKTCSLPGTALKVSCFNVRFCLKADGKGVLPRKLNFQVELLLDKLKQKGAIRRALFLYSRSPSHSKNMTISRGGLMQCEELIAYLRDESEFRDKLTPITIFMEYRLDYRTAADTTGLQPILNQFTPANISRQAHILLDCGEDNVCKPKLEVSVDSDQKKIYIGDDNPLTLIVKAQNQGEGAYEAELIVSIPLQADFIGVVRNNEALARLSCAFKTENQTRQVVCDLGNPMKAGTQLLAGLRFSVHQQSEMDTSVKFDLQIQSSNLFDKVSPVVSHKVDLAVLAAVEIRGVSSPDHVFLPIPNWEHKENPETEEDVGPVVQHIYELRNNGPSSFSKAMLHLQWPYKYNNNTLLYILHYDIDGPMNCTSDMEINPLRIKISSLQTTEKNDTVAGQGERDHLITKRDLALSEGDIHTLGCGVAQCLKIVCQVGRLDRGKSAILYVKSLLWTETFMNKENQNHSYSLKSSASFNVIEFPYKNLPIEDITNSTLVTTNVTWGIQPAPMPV
Sequence of integrin-αvβ1 (P05556 21-728 partner limits assumed): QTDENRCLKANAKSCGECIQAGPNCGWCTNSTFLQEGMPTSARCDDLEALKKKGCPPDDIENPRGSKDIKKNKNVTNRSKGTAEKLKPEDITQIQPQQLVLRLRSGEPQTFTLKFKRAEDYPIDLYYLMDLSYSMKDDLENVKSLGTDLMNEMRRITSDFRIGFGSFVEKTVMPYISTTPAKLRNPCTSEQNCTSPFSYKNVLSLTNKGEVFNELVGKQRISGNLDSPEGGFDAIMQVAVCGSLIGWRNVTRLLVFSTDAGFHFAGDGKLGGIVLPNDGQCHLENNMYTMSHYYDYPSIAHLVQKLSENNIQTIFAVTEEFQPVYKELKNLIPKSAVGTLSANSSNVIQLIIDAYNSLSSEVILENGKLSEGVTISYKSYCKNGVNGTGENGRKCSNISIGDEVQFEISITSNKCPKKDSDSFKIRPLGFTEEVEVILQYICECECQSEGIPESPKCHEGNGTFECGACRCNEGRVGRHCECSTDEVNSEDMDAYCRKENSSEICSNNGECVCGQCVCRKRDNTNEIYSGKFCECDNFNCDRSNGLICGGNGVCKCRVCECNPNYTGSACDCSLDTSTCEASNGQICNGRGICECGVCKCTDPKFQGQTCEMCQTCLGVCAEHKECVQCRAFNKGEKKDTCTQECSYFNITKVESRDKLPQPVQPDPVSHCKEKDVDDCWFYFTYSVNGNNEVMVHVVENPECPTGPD

Compound | effects on FN and Col I mRNA vs SDC4_87-131 ([1]; dECM, n=5) | mRNA levels of α-SMA, FN, Col I and TGF-β1 ([1]; n=5) | inhibition of pan-integrins activation vs SDC4_87-131 [2] | protein levels of α-SMA, integrin-αv, p-FAK and p-PKCα [3] | Kd [4] [nM] | also measured
Ac-GSADPRAVPTEPKKLSPVEESEDITNSTLV-NH2 [CS-10] | significantly greater than those of SDC4_87-131 | significantly downregulate | stronger than that of SDC4_87-131 | significantly decrease the protein levels | 35.4 | –
Ac-NHIPETVEDPEPKKLSPVEESEDITNSTLV-NH2 [CS-9] | significantly greater than those of SDC4_87-131 | significantly downregulate | stronger than that of SDC4_87-131 | significantly decrease the protein levels | 10.9 | effects on α-SMA, FN and IL-6 vs SDC4_87-131 [5]: significantly stronger than that of SDC4_87-131; downregulation of all four mRNAs (α-SMA, FN, Col I, TGF-β1) vs SDC4_87-131 ([1]; dECM, n=5): significantly higher than that of SDC4_87-131; reduction of α-SMA protein vs SDC4_87-131 [3]: stronger reduction in α-SMA than SDC4_87-131; inhibitory effect on collagen deposition vs SDC4_87-131 ([6]; q3d from day 3): significantly stronger inhibitory effect on collagen deposition than SDC4_87-131; anti-PF effect vs SDC4_87-131 ([6]; overall, q3d): significantly enhanced anti-PF effect compared with SDC4_87-131; toxicity (summary) [7]: low toxicity
Ac-NHIPERAVPTEPKKLSPVEESEDITNSTLV-NH2 [CS-8] | significantly greater than those of SDC4_87-131 | significantly downregulate | stronger than that of SDC4_87-131 | significantly decrease the protein levels | 25.9 | –
Ac-NHIPERAVPTEPKKLSPVEESEDITNSTLVTTNVT-NH2 [CS-4] | significantly greater than those of SDC4_87-131 | significantly downregulate | stronger than that of SDC4_87-131 | significantly decrease the protein levels | 32.3 | reduction of integrin-αv and p-FAK vs SDC4_87-131 [3]: weaker reduction in integrin-αv and p-FAK compared to SDC4_87-131
CS(=O)(=O)c1cccc(CNc2nc(Nc3ccc4c(c3)CCC(=O)N4)ncc2C(F)(F)F)c1 [PF-573228, reference compound] | – | – | – | – | – | dECM-PF-induced fibroblast activation and TGF-β1 upregulation ([1]; 1 μM, 3 μM, mRNA levels, n=4): significantly reduced dECM-PF-induced fibroblast activation and TGF-β1 upregulation in a dose-dependent manner
Ac-NHIPERAGSGSQVPTEPKKLSPVEESEDRSNKVSM-NH2 [CS-2] | – | – | – | – | 29.1 | –
Ac-NHIPERAGSGSQVPTEPKKLSPVEESEDVSNKVSMTTNVT-NH2 [CS-1] | – | – | – | – | 12.8 | –
Ac-NHIPERAGSGSQVPTEPKKLSPVEESEDWSNKVSM-NH2 [CS-3] | significantly greater than those of SDC4_87-131 | significantly downregulate | stronger than that of SDC4_87-131 | significantly decrease the protein levels | 64.9 | –
